Assay results from ChEMBL document CHEMBL2413072, “Synthesis and in vitro anticancer studies of novel C-2 arylidene congeners of lantadenes” (2013).

Legend:
Type in all cases: functional
MDA-MB-468 [1] = test: Growth inhibition of human MDA-MB-468 cells assessed as growth inhibition at 10 uM by sulforhodamine B assay; conditions: read-out: GI
T47D = test: Growth inhibition of human T47D cells assessed as growth inhibition at 10 uM by sulforhodamine B assay; conditions: read-out: GI
BT-549 = test: Growth inhibition of human BT549 cells assessed as growth inhibition at 10 uM by sulforhodamine B assay; conditions: read-out: GI
[2] = Growth inhibition of human Hs 578T cells assessed as growth inhibition at 10 uM by sulforhodamine B assay; conditions: read-out: GI
MDA-MB-231 = test: Growth inhibition of human MDA-MB-231 cells assessed as growth inhibition at 10 uM by sulforhodamine B assay; conditions: read-out: GI
PC-3 [3] = test: Growth inhibition of human PC3 cells assessed as growth inhibition at 10 uM by sulforhodamine B assay; conditions: read-out: GI
RXF 393 [4] = test: Growth inhibition of human RXF393 cells assessed as growth inhibition at 10 uM by sulforhodamine B assay; conditions: read-out: GI
ACHN = test: Growth inhibition of human ACHN cells assessed as growth inhibition at 10 uM by sulforhodamine B assay; conditions: read-out: GI
[5] = Growth inhibition of human NCI-ADR-RES cells assessed as growth inhibition at 10 uM by sulforhodamine B assay; conditions: read-out: GI
OVCAR-8 = test: Growth inhibition of human OVCAR8 cells assessed as growth inhibition at 10 uM by sulforhodamine B assay; conditions: read-out: GI
CCRF-CEM = test: Growth inhibition of human CCRF-CEM cells assessed as cell growth at 10 uM by sulforhodamine B assay; conditions: read-out: Activity
OVCAR-5 = test: Growth inhibition of human OVCAR5 cells assessed as growth inhibition at 10 uM by sulforhodamine B assay; conditions: read-out: GI
OVCAR-4 [6] = test: Growth inhibition of human OVCAR4 cells assessed as growth inhibition at 10 uM by sulforhodamine B assay; conditions: read-out: GI
SK-MEL-5 = test: Growth inhibition of human SK-MEL-5 cells assessed as growth inhibition at 10 uM by sulforhodamine B assay; conditions: read-out: GI
SK-MEL-2 = test: Growth inhibition of human SK-MEL-2 cells assessed as growth inhibition at 10 uM by sulforhodamine B assay; conditions: read-out: GI
LOX IMVI [7] = test: Growth inhibition of human LOXIMVI cells assessed as growth inhibition at 10 uM by sulforhodamine B assay; conditions: read-out: GI
U-251 = test: Growth inhibition of human U251 cells assessed as growth inhibition at 10 uM by sulforhodamine B assay; conditions: read-out: GI
SNB-75 [8] = test: Growth inhibition of human SNB75 cells assessed as growth inhibition at 10 uM by sulforhodamine B assay; conditions: read-out: GI
SNB-19 = test: Growth inhibition of human SNB19 cells assessed as growth inhibition at 10 uM by sulforhodamine B assay; conditions: read-out: GI
SF-295 [9] = test: Growth inhibition of human SF295 cells assessed as growth inhibition at 10 uM by sulforhodamine B assay; conditions: read-out: GI
HT-29 = test: Growth inhibition of human HT-29 cells assessed as growth inhibition at 10 uM by sulforhodamine B assay; conditions: read-out: GI
HCT-15 = test: Growth inhibition of human HCT15 cells assessed as growth inhibition at 10 uM by sulforhodamine B assay; conditions: read-out: GI
HCT-116 [10] = test: Growth inhibition of human HCT116 cells assessed as growth inhibition at 10 uM by sulforhodamine B assay; conditions: read-out: GI
[11] = Growth inhibition of human HCC2998 cells assessed as growth inhibition at 10 uM by sulforhodamine B assay; conditions: HCC 2998, read-out: GI
COLO 205 = test: Growth inhibition of human COLO205 cells assessed as growth inhibition at 10 uM by sulforhodamine B assay; conditions: read-out: GI
A549 [12] = test: Growth inhibition of human A549/ATCC cells assessed as growth inhibition at 10 uM by sulforhodamine B assay; conditions: read-out: GI
SR [13] = test: Growth inhibition of human SR cells assessed as growth inhibition at 10 uM by sulforhodamine B assay; conditions: read-out: GI
K562 = test: Growth inhibition of human K562 cells assessed as growth inhibition at 10 uM by sulforhodamine B assay; conditions: read-out: GI
HL-60(TB) = test: Growth inhibition of human HL-60(TB) cells assessed as growth inhibition at 10 uM by sulforhodamine B assay; conditions: read-out: GI
MDA-MB-468 [14] = test: Growth inhibition of human MDA-MB-468 cells assessed as cell growth at 10 uM by sulforhodamine B assay; conditions: read-out: Activity
[15] = Growth inhibition of human Hs 578T cells assessed as cell growth at 10 uM by sulforhodamine B assay; conditions: read-out: Activity
DU-145 = test: Growth inhibition of human DU145 cells assessed as cell growth at 10 uM by sulforhodamine B assay; conditions: read-out: Activity
PC-3 [16] = test: Growth inhibition of human PC3 cells assessed as cell growth at 10 uM by sulforhodamine B assay; conditions: read-out: Activity
UO-31 = test: Growth inhibition of human UO31 cells assessed as cell growth at 10 uM by sulforhodamine B assay; conditions: read-out: Activity
RXF 393 [17] = test: Growth inhibition of human RXF393 cells assessed as cell growth at 10 uM by sulforhodamine B assay; conditions: read-out: Activity
CAKI-1 = test: Growth inhibition of human CAKI-1 cells assessed as cell growth at 10 uM by sulforhodamine B assay; conditions: read-out: Activity
A498 = test: Growth inhibition of human A498 cells assessed as cell growth at 10 uM by sulforhodamine B assay; conditions: read-out: Activity
786-0 = test: Growth inhibition of human 786-0 cells assessed as cell growth at 10 uM by sulforhodamine B assay; conditions: read-out: Activity
OVCAR-4 [18] = test: Growth inhibition of human OVCAR4 cells assessed as cell growth at 10 uM by sulforhodamine B assay; conditions: read-out: Activity
UACC-257 = test: Growth inhibition of human UACC257 cells assessed as cell growth at 10 uM by sulforhodamine B assay; conditions: read-out: Activity
LOX IMVI [19] = test: Growth inhibition of human LOXIMVI cells assessed as cell growth at 10 uM by sulforhodamine B assay; conditions: read-out: Activity
SNB-75 [20] = test: Growth inhibition of human SNB75 cells assessed as cell growth at 10 uM by sulforhodamine B assay; conditions: read-out: Activity
SF-295 [21] = test: Growth inhibition of human SF295 cells assessed as cell growth at 10 uM by sulforhodamine B assay; conditions: read-out: Activity
HCT-116 [22] = test: Growth inhibition of human HCT116 cells assessed as cell growth at 10 uM by sulforhodamine B assay; conditions: read-out: Activity
NCI-H460 = test: Growth inhibition of human NCI-H460 cells assessed as cell growth at 10 uM by sulforhodamine B assay; conditions: read-out: Activity
NCI-H322M = test: Growth inhibition of human NCI-H322M cells assessed as cell growth at 10 uM by sulforhodamine B assay; conditions: read-out: Activity
HOP-62 = test: Growth inhibition of human HOP62 cells assessed as cell growth at 10 uM by sulforhodamine B assay; conditions: read-out: Activity
A549 [23] = test: Growth inhibition of human A549/ATCC cells assessed as cell growth at 10 uM by sulforhodamine B assay; conditions: read-out: Activity
SR [24] = test: Growth inhibition of human SR cells assessed as cell growth at 10 uM by sulforhodamine B assay; conditions: read-out: Activity

Compound: COc1cc(/C=C2\C[C@]3(C)[C@H]4CC=C5[C@@H]6CC(C)(C)C[C@@H](O)[C@]6(C(=O)O)CC[C@@]5(C)[C@]4(C)CC[C@H]3C(C)(C)C2=O)ccc1O
- inhibition of growth at 10 µM (MDA-MB-468 [1]): < 10%
- inhibition of growth at 10 µM (T47D): 18.9%
- inhibition of growth at 10 µM (BT-549): < 10%
- inhibition of growth at 10 µM [2]: < 10%
- inhibition of growth at 10 µM (MDA-MB-231): < 10%
- inhibition of growth at 10 µM (PC-3 [3]): 27.8%
- inhibition of growth at 10 µM (RXF 393 [4]): < 10%
- inhibition of growth at 10 µM (ACHN): 14.4%
- inhibition of growth at 10 µM [5]: < 10%
- inhibition of growth at 10 µM (OVCAR-8): 20.2%
- growth at 10 µM (CCRF-CEM): 82%
- inhibition of growth at 10 µM (OVCAR-5): < 10%
- inhibition of growth at 10 µM (OVCAR-4 [6]): 16.2%
- inhibition of growth at 10 µM (SK-MEL-5): 11.9%
- inhibition of growth at 10 µM (SK-MEL-2): < 10%
- inhibition of growth at 10 µM (LOX IMVI [7]): 11.6%
- inhibition of growth at 10 µM (U-251): 15.3%
- inhibition of growth at 10 µM (SNB-75 [8]): 17.9%
- inhibition of growth at 10 µM (SNB-19): < 10%
- inhibition of growth at 10 µM (SF-295 [9]): 23.5%
- inhibition of growth at 10 µM (HT-29): 14.5%
- inhibition of growth at 10 µM (HCT-15): 23.5%
- inhibition of growth at 10 µM (HCT-116 [10]): 15.2%
- inhibition of growth at 10 µM [11]: < 10%
- inhibition of growth at 10 µM (COLO 205): < 10%
- inhibition of growth at 10 µM (A549 [12]): 28.2%
- inhibition of growth at 10 µM (SR [13]): 12.9%
- inhibition of growth at 10 µM (K562): 28.8%
- inhibition of growth at 10 µM (HL-60(TB)): 28.9%
- growth at 10 µM (MDA-MB-468 [14]): 103%
- growth at 10 µM [15]: 94%
- growth at 10 µM (DU-145): 107%
- growth at 10 µM (PC-3 [16]): 72.2%
- growth at 10 µM (UO-31): 75.5%
- growth at 10 µM (RXF 393 [17]): 109%
- growth at 10 µM (CAKI-1): 78.8%
- growth at 10 µM (A498): 115%
- growth at 10 µM (786-0): 102%
- growth at 10 µM (OVCAR-4 [18]): 83.8%
- growth at 10 µM (UACC-257): 91.4%
- growth at 10 µM (LOX IMVI [19]): 88.4%
- growth at 10 µM (SNB-75 [20]): 82.1%
- growth at 10 µM (SF-295 [21]): 76.5%
- growth at 10 µM (HCT-116 [22]): 84.8%
- growth at 10 µM (NCI-H460): 102%
- growth at 10 µM (NCI-H322M): 97.5%
- growth at 10 µM (HOP-62): 96.9%
- growth at 10 µM (A549 [23]): 71.8%
- growth at 10 µM (SR [24]): 87.1%
